Results reported in US10906946B2, “Thrombin inhibitors” (priority 2015, dated 2021).
Values joined by “and” are separate entries in the source; they are usually repeats but may differ in a detail not shown here. Equal values may be shown once. Read-outs that look alike come from different tables or passages of the source. Ends that are not written are not given here. Peptide text beside a SMILES is read from it.

Target: T1, human α-thrombin (Homo sapiens, UniProt P00734)
T1 construct: residues in the termini of the light chain; purchased Chemo-Sero-Therapeutic Research Institute (Kaketsuken, Japan), as a gift, not bought
Assay: Thrombin amidolytic activity assay with chromogenic substrate S2238
Type: biochemical
Conditions: for Hill slope of thrombin amidolytic inhibition: 0 min pre-incubation where stated; for Hill Slope: Table 2
Protocol: Thrombin amidolytic activity assays for all peptides were performed in 96-wells microtiter plates in 50 mM Tris buffer (pH 7.4) containing 100 mM NaCl and 1 mg/ml bovine serum albumin. […] The rates of formation of p-nitroaniline were followed by measuring the absorbance at 405 nm for 10 min with a Tecan InfinitePro M200 microplate reader from Tecan (Männedorf, Switzerland). Dose-response curves were fitted using the GraphPad Prizm software (San Diego, Calif., USA) to calculate IC50 values and Hill coefficients. To measure the inhibitory constants, different concentrations of S2238 were used and the residual velocities were determined using the Morrison's tight binding equation. Inhibition of thrombin fibrinogenolytic activity of peptides were tested by measuring absorbance at 650 nm using a Sunrise microplate reader from Tecan (Männedorf, Switzerland) as described previously [Koh C Y, et al., J Biol Chem 282: 29101-13 (2007)]. The selectivity of avathrin was examined against 13 serine proteases (FIG. 5). Effects of avathrin on the amidolytic activities of these serine proteases were determined using respective chromogenic substrates. […] Avathrin (150 μM) was incubated with thrombin (5 μM), in 50 mM Tris buffer (pH 7.4) containing 150 mM NaCl and 1 mg/ml BSA. After different incubation times, reactions were quenched with 1% TFA (pH 1.8) and loaded onto a Jupiter Proteo column (4 μm, 90 Å, 100×1.0 mm) attached to a Dionex nano-HPLC system from Thermo Fisher Scientific (Waltham, Mass., USA) and eluted using an acetonitrile gradient with 0.05% TFA and 99.95% MilliQ water as eluent A and 0.05% TFA, 19.95% MilliQ water and 80% ACN as eluent B. Masses of all peaks were measured to identify cleavage products, which were subsequently quantified by integrating the peaks and calculating the area under the curves. To measure the effect of different pre-incubation times on the thrombin inhibitory activity, amidolytic assays were performed for various incubation times (up to 36 h).

[1] = IC50 of inhibition of thrombin amidolytic activity, thrombin 0.81 nM, S2238 100 μM, without pre-incubation (0 min) where stated
[2] = inhibitory constant Ki for thrombin, thrombin 0.81 nM, various S2238 concentrations
[3] = IC50 (nM), Table 4, members of variegin family

SDVAPADYESDEGDNDGGHDGSEVAKPKMPRGNGGGGDFEEIPEVE [Rhipicephalus sanguineus]
IC50 (Table 4, members of variegin family, read-out: IC50): 42.4 ± 0.62 nM | Ki (thrombin 0.81 nM, various S2238 concentrations, read-out: inhibitory constant Ki for thrombin): 8.79 ± 0.65 nM

CC[C@H](C)[C@H](NC(=O)[C@H](CCC(=O)O)NC(=O)[C@H](CC(=O)O)NC(=O)[C@H](CC(=O)O)NC(=O)[C@@H]1CCCN1C(=O)[C@@H](NC(=O)[C@H](CCC(=O)O)NC(=O)[C@H](CCC(=O)O)NC(=O)[C@H](Cc1ccccc1)NC(=O)[C@H](CC(=O)O)NC(=O)CNC(=O)[C@@H]1CCCN1C(=O)[C@@H]1CCCN1C(=O)[C@H](C)NC(=O)[C@@H](NC(=O)[C@H](CO)NC(=O)[C@H](Cc1ccc(O)cc1)NC(=O)[C@H](CCSC)NC(=O)[C@H](CCCCN)NC(=O)[C@@H]1CCCN1C(=O)[C@@H](NC(=O)[C@H](C)NC(=O)[C@H](CCCNC(=N)N)NC(=O)[C@@H](NC(=O)[C@H](C)NC(=O)[C@H](CCC(=O)O)NC(=O)[C@H](CC(=O)O)NC(=O)[C@@H](N)CO)C(C)C)[C@@H](C)CC)[C@@H](C)O)[C@@H](C)CC)C(=O)N[C@@H](CCC(=O)O)C(=O)N[C@@H](CCC(=O)O)C(=O)O [UV012] (H-SDEAVRAIPKMYSTAPPGDFEEIPDDEIEE-OH; N-terminus and C-terminus assumed)
fold drop in affinity for thrombin compared to ultravariegin: 5 fold

CC[C@H](C)[C@H](NC(=O)[C@H](CCCCN)NC(=O)[C@@H]1CCCN1C(=O)[C@@H](NC(=O)[C@H](C)NC(=O)[C@@H](NC(=O)[C@H](CCC(N)=O)NC(=O)[C@H](Cc1c[nH]cn1)NC(=O)CNC(=O)CNC(=O)[C@@H](N)CO)[C@@H](C)O)C(C)C)C(=O)N[C@@H](C)C(=O)N[C@@H](CCCCN)C(=O)N[C@@H](CCC(N)=O)C(=O)NCC(=O)N[C@@H](CC(C)C)C(=O)NCC(=O)NCC(=O)N[C@@H](CC(=O)O)C(=O)N[C@@H](Cc1ccccc1)C(=O)N[C@@H](CCC(=O)O)C(=O)N[C@@H](CCC(=O)O)C(=O)N[C@H](C(=O)N1CCC[C@H]1C(=O)N[C@@H](CO)C(=O)N[C@@H](CC(=O)O)C(=O)N[C@@H](CCC(=O)O)C(=O)N[C@H](C(=O)N[C@H](C(=O)N[C@@H](CCC(=O)O)C(=O)O)[C@@H](C)CC)[C@@H](C)CC)[C@@H](C)CC [Peptide S12A] (H-SGGHQTAVPKIAKQGLGGDFEEIPSDEIIE-OH; N-terminus and C-terminus assumed)
fold drop in potency compared with avathrin: > 10 fold and 20 fold | Hill slope of thrombin amidolytic inhibition: 0.62±0.01 | IC50 [1]: 101 ± 1.32 nM | Hill Slope: 0.62 ± 0.01 | Ki [2]: 6.07 ± 0.18 nM

CC[C@H](C)[C@H](NC(=O)[C@H](C)NC(=O)[C@H](CC(=O)O)NC(=O)[C@H](CC(=O)O)NC(=O)[C@@H]1CCCN1C(=O)[C@@H](NC(=O)[C@H](CCC(=O)O)NC(=O)[C@H](CCC(=O)O)NC(=O)[C@H](Cc1ccccc1)NC(=O)[C@H](CC(=O)O)NC(=O)CNC(=O)[C@@H]1CCCN1C(=O)[C@@H]1CCCN1C(=O)[C@H](C)NC(=O)[C@@H](NC(=O)[C@H](CCCCN)NC(=O)[C@H](Cc1c[nH]cn1)NC(=O)[C@H](CCSC)NC(=O)[C@H](CCCCN)NC(=O)[C@@H]1CCCN1C(=O)[C@H](CCC(=O)O)NC(=O)[C@H](C)NC(=O)[C@H](CCCNC(=N)N)NC(=O)[C@@H](NC(=O)[C@H](C)NC(=O)[C@H](CCC(=O)O)NC(=O)[C@H](CC(=O)O)NC(=O)[C@@H](N)CO)C(C)C)[C@@H](C)O)[C@@H](C)CC)C(=O)N[C@@H](CCC(=O)O)C(=O)N[C@@H](CCC(=O)O)C(=O)O [UV004] (H-SDEAVRAEPKMHKTAPPGDFEEIPDDAIEE-OH)
IC50 [1]: 0.46 ± 0.08 nM | Ki [2]: 0.00455 ± 0.00037 nM

ELESGDEDSEGGDSQSSPTESAAPRLHQREGGGGDFENVEYDQDQK [Amblyomma maculatum]
IC50 [3]: 130 ± 1.74 nM

CC[C@H](C)[C@H](NC(=O)[C@H](C)NC(=O)[C@H](CCCNC(=N)N)NC(=O)[C@@H](NC(=O)[C@H](C)NC(=O)[C@H](CCC(=O)O)NC(=O)[C@H](CC(=O)O)NC(=O)[C@@H](N)CO)C(C)C)C(=O)N1CCC[C@H]1C(=O)N[C@@H](CCCCN)C(=O)N[C@@H](CCSC)C(=O)N[C@@H](Cc1ccc(O)cc1)C(=O)N[C@@H](CO)C(=O)N[C@H](C(=O)N[C@@H](C)C(=O)N1CCC[C@H]1C(=O)N1CCC[C@H]1C(=O)NCC(=O)N[C@@H](CC(=O)O)C(=O)N[C@@H](Cc1ccccc1)C(=O)N[C@@H](CCC(=O)O)C(=O)N[C@@H](CCC(=O)O)C(=O)N[C@H](C(=O)N1CCC[C@H]1C(=O)N[C@@H](CCC(=O)O)C(=O)N[C@@H](CCC(=O)O)C(=O)N[C@@H](Cc1ccc(O)cc1)C(=O)N[C@@H](CC(C)C)C(=O)N[C@@H](CC(=O)O)C(=O)N[C@@H](CC(=O)O)C(=O)N[C@@H](CCC(=O)O)C(=O)N[C@@H](CO)C(=O)O)[C@@H](C)CC)[C@@H](C)O [UV005]
fold drop in affinity for thrombin compared to ultravariegin: around 3.6 fold | IC50 (IC50 of inhibition of thrombin amidolytic activity, FIG. 17 legend): 0.91 ± 0.47 nM | Ki [2]: 0.016 ± 0.00305 nM

CC[C@H](C)[C@H](NC(=O)[C@H](C)NC(=O)[C@H](CC(=O)O)NC(=O)[C@H](CC(=O)O)NC(=O)[C@@H]1CCCN1C(=O)[C@@H](NC(=O)[C@H](CCC(=O)O)NC(=O)[C@H](CCC(=O)O)NC(=O)[C@H](Cc1ccccc1)NC(=O)[C@H](CC(=O)O)NC(=O)CNC(=O)[C@@H]1CCCN1C(=O)[C@@H]1CCCN1C(=O)[C@H](C)NC(=O)[C@@H](NC(=O)[C@H](CO)NC(=O)[C@H](Cc1ccc(O)cc1)NC(=O)[C@H](CCSC)NC(=O)[C@H](CCCCN)NC(=O)[C@@H]1CCCN1C(=O)[C@@H](NC(=O)[C@H](C)NC(=O)[C@@H](NC(=O)[C@H](CC(=O)O)NC(=O)CNC(=O)[C@H](CCC(N)=O)NC(=O)[C@H](CC(=O)O)NC(=O)[C@@H](N)CO)C(C)C)[C@@H](C)CC)[C@@H](C)O)[C@@H](C)CC)C(=O)N[C@@H](CCC(=O)O)C(=O)N[C@@H](CCC(=O)O)C(=O)O [UV003] (H-SDQGDVAIPKMYSTAPPGDFEEIPDDAIEE-OH)
IC50 [1]: 0.6 ± 0.2 nM | Ki [2]: 0.00421 ± 0.00096 nM

CC[C@H](C)[C@H](NC(=O)[C@H](CCCCN)NC(=O)[C@@H]1CCCN1C(=O)[C@@H](NC(=O)[C@H](C)NC(=O)[C@@H](NC(=O)[C@H](CC(=O)O)NC(=O)[C@H](Cc1c[nH]cn1)NC(=O)CNC(=O)[C@H](CC(=O)O)NC(=O)[C@@H](N)CO)[C@@H](C)O)C(C)C)C(=O)N[C@@H](CO)C(=O)N[C@@H](CCCCN)C(=O)N[C@@H](CCC(N)=O)C(=O)NCC(=O)N[C@@H](CC(C)C)C(=O)NCC(=O)NCC(=O)N[C@@H](CC(=O)O)C(=O)N[C@@H](Cc1ccccc1)C(=O)N[C@@H](CCC(=O)O)C(=O)N[C@@H](CCC(=O)O)C(=O)N[C@H](C(=O)N1CCC[C@H]1C(=O)N[C@@H](CO)C(=O)N[C@@H](CC(=O)O)C(=O)N[C@@H](CCC(=O)O)C(=O)N[C@H](C(=O)N[C@H](C(=O)N[C@@H](CCC(=O)O)C(=O)O)[C@@H](C)CC)[C@@H](C)CC)[C@@H](C)CC [G2D, Q5D] (H-SDGHDTAVPKISKQGLGGDFEEIPSDEIIE-OH)
fold drop in potency compared with avathrin: < 2 fold | Hill slope of thrombin amidolytic inhibition: 0.71±0.03 | IC50 [1]: 13 ± 1.23 nM | Hill Slope: 0.71 ± 0.03

CC[C@H](C)[C@H](NC(=O)[C@H](CC(=O)O)NC(=O)[C@H](CCC(=O)O)NC(=O)[C@H](Cc1ccccc1)NC(=O)[C@H](CC(=O)O)NC(=O)CNC(=O)CNC(=O)[C@H](CC(C)C)NC(=O)CNC(=O)[C@H](CCCCN)NC(=O)[C@H](CCCNC(=N)N)NC(=O)[C@H](CO)NC(=O)[C@H](CCSC)NC(=O)[C@H](CCCCN)NC(=O)[C@@H]1CCCN1C(=O)[C@@H](NC(=O)[C@H](C)NC(=O)[C@@H](NC(=O)[C@H](Cc1c[nH]cn1)NC(=O)[C@H](CC(=O)O)NC(=O)[C@H](CCC(=O)O)NC(=O)CNC(=O)[C@@H](N)CO)[C@@H](C)O)C(C)C)C(=O)N1CCC[C@H]1C(=O)N1CCC[C@H]1C(=O)N[C@@H](CCC(=O)O)C(=O)N[C@@H](C)C(=O)N[C@@H](Cc1ccc(O)cc1)C(=O)N[C@@H](CCC(=O)O)C(=O)N[C@@H](CCCNC(=N)N)C(=O)N[C@@H](C)C(=O)N[C@@H](CC(C)C)C(=O)N[C@@H](CCC(=O)O)C(=O)N[C@@H](C)C(=O)N[C@@H](CCCNC(=N)N)C(=O)O [Amblyomma americanum] (H-SGEDHTAVPKMSRKGLGGDFEDIPPEAYERALEAR-OH)
Ki (Affinity (nM), Table 4, Ki values): 1.63 ± 0.61 nM | IC50 [3]: 14.29 ± 0.12 nM
